According to patent publication US20230248029A1, “Single-Serving Beverage Ingredient Containers Comprising Nanoparticulate Cannabidiol” (priority 2022, published 2023):

Legend:
[1] = CBD extraction in brewed coffee beverage, pure CBD powder (HPLC); type: physicochemical
Excerpt: To test the extraction efficiency of pure CBD powder in a coffee brewing process, the foil lids of each of several single-serving coffee containers adapted for use in a Keurig single-serving coffee machine were peeled back, a small depression was made in the top of the coffee grounds, and a measured quantity of CBD powder was placed in the depression. The foil lids were then resealed, and the containers were shaken for 30 seconds to disperse the CBD powder throughout the mass of coffee grounds. Each of the containers was then used in a Keurig single-serving coffee machine to brew either a 160 mL coffee beverage or a 300 mL coffee beverage. Mixing the CBD powder throughout the coffee grounds allowed the CBD to melt as hot water flowed downward from the top of the container and through the mass of coffee grounds during the coffee brewing process; relative to simply disposing the CBD powder in the bottom of the container, this reduces the amount of CBD extracted into the coffee beverage but improves the extent to which the CBD is mixed and dispersed with other chemical components extracted with the coffee, thereby inhibiting the formation of a CBD film in the brewed coffee beverage.
For each brewed coffee beverage, the beverage was poured into three separate bottles; a small sample was taken from each bottle and diluted in 10× (by volume) ethanol. This mixture was then shaken and centrifuged to remove coffee components and dissolve the CBD. The supernatant was removed from the centrifuged samples and measured by high-performance liquid chromatography using an Agilent Zorbax Eclipse XDB-C8 column. The mobile phase was a 1 mL/min gradient of 70:30 (vol/vol) acetonitrile:water to 80:20 (vol/vol) acetonitrile:water over 8 minutes. A 20 μL injection was used and the column was kept at 25° C. Absorbance was measured at 210 nm with a 5 nm bandwidth.

[2] = CBD film formation on the surface of the brewed coffee beverage (visual); type: physicochemical; settings: Keurig-brewed coffee beverage, visual (FIG. 5A, 5B)
Excerpt: This variability is expected due to the difference in particle size between the CBD powder and the ground coffee, which makes uniform dispersion of the CBD powder throughout the coffee grounds difficult.
Without wishing to be bound by any particular theory, the present inventors hypothesize that more concentrated droplets may be effective to increase the CBD extraction from F68 formulations.
This is because, in the use of Keurig single-serving coffee machines (and in conventional drip coffee makers), the water used is at or near its boiling point, which in any event is much higher than the melting point of CBD (66° C.), and the colloid droplets therefore cannot resist these high temperatures, causing coalescence of the CBD. In some embodiments, therefore, it may be desirable to brew the coffee beverage at a lower temperature, or to brew a conventional (non-CBD-containing) coffee beverage at typical near-boiling temperatures and then mix in a CBD colloid as described herein after the coffee beverage has cooled to below the melting point of CBD (but still at or above the temperature at which the consumer desires to consume the coffee, which on average is about 60° C.); it is to be expressly understood that such embodiments are within the scope of the present disclosure.

[3] = oral; cited from earlier work
[4] = CBD mass 50 mg, beverage volume 160 mL
[5] = CBD mass 50 mg, beverage volume 300 mL
[6] = CBD mass 75 mg, beverage volume 160 mL
[7] = CBD mass 75 mg, beverage volume 300 mL
[8] = CBD mass 100 mg, beverage volume 160 mL
[9] = CBD mass 100 mg, beverage volume 300 mL

C=C(C)[C@@H]1CCC(C)=C[C@H]1c1c(O)cc(CCCCC)cc1O [CBD, cannabidiol]
CBD extraction [1, 4]: 22.0 ± 9.6%
CBD in beverage [1, 4]: 8.9 ± 4.4 mg
CBD extraction [1, 5]: 42.1 ± 10.0%
CBD in beverage [1, 5]: 20.3 ± 5.9 mg
CBD extraction [1, 6]: 8.3 ± 6.2%
CBD in beverage [1, 6]: 11.3 ± 4.8 mg
CBD extraction [1, 7]: 15.8 ± 5.2%
CBD in beverage [1, 7]: 11.9 ± 3.9 mg
CBD extraction [1, 8]: 21.0 ± 14.8%
CBD in beverage [1, 8]: 21.0 ± 14.8 mg
CBD extraction [1, 9]: 11.9 ± 3.5%
CBD in beverage [1, 9]: 11.9 ± 3.5 mg
CBD film formation in the brewed coffee beverage [2]: large, thick films
Maximum theoretical bioavailability of orally administered CBD [3]: 19%
